Results published in ChEMBL document CHEMBL5518198, “Three Rounds of Stability-Guided Optimization and Systematical Evaluation of Oncolytic Peptide LTX-315” (J Med Chem, 2024).

Legend:
[1] = Stability of compound in mouse A20 cells assessed as compound degradation by measuring increase in fluorescence intensity at 10 uM measured upto 72 hrs by IQF based assay; type: ADME, cell-based; conditions: a20, 72 h
Trypsin = Trypsin (Homo sapiens, UniProt P07477+P07478+P35030); assay: Stability of compound assessed as trypsin (unknown origin) mediated compound degradation by measuring increase in fluorescence intensity at 100 uM measured upto 72 hrs by IQF based assay; type: ADME, protein assay
[2] = Stability in human serum assessed as compound degradation by measuring increase in fluorescence intensity at 100 uM measured upto 72 hrs by IQF based assay; type: ADME, cell-free

Measured: Stability

NCCCC[C@@H](NC(=O)c1ccccc1N)C(=O)N[C@H](CCCCN)C(=O)N[C@H](Cc1c[nH]c2ccccc12)C(=O)N[C@H](Cc1c[nH]c2ccccc12)C(=O)N[C@H](CCCCN)C(=O)N[C@H](CCCCN)C(=O)N[C@H](Cc1c[nH]c2ccccc12)C(=O)N[C@@H](C(=O)N[C@H](CCCCN)C(=O)N[C@H](CCCCNc1ccc([N+](=O)[O-])cc1[N+](=O)[O-])C(N)=O)C(c1ccccc1)c1ccccc1
Stable: [1] | Trypsin | [2]
